Results reported in patent publication US20050032854A1, “Insulin resistance improving agents” (priority 2001, published 2005).

Tested on: spontaneously hypertensive rats (SHR)
Assay: Insulin sensitivity evaluation by glucose clamp technique in spontaneously hypertensive rats (SHR)
Assay type: in vivo, rat
Settings: for M-value (average glucose infusion rate, index of insulin sensitivity): n=10, vehicle 5.9±0.5
Protocol: For evaluation of insulin resistance, 23-week-old spontaneously hypertensive rats (SHR) were used. Vehicle (0.5% methyl cellulose solution administration) and compound A (0.3 and 1 mg/kg/day) were orally administered for 2 weeks, after which an insulin sensitivity evaluation test by a glucose clamp technique was performed. The rats were grouped such that each parameter was leveled based on the glucose level and plasma insulin value before start of the drug administration. SHR were fasted from the evening of the day before the operation of the glucose clamp technique.
The glucose clamp technique was performed according to the following procedures. The rats were anesthetized with pentobarbital sodium (50 mg/kg i.p.) and catheters [PR45 (trademark), NATUME SEISAKUSHO CO., LTD.] for blood collection, for intravenous injection of insulin [novolin R injection 40 (trademark), Novo Nordisk Pharma Ltd.] and for intravenous injection of glucose [Otsuka glucose injection 50% (trademark), Otsuka Pharmaceutical Co., Ltd.] were each placed in the right common carotid artery, left femoral vein and right femoral vein, respectively. The glucose level was measured using a simplified glucose meter [Advantage II (trademark), Roche Diagnostics Corporation]. Using a peristaltic pump [MINIPULS 3 (trademark), Gilson Company, Inc.], insulin was constantly infused continuously at an injection rate of 40 and 20 mU/kg/min for 5 and 3 min, respectively, to afford a high insulin state, and thereafter high insulin state was maintained at 8 mU/kg/min.. Glucose was constantly infused intravenously to maintain the range of initial value±10% of blood glucose, using a different peristaltic pump. […] Glucose was constantly infused for-90 min and an average of glucose infusion rate for the period of 40 min from 50 min to 90 min after the start of the infusion was calculated and used as an index showing the insulin sensitivity (M-value). […] For statistic analysis, Williams' test was used and significance was evaluated at a risk rate of less than 2.5%.

CCOc1nc2cccc(C(=O)O)c2n1Cc1ccc(-c2ccccc2-c2nc(=O)o[nH]2)cc1 [compound A, 2-Ethoxy-1-[[2′-(5-oxo-2,5-dihydro-1,2,4-oxadiazol-3-yl)biphenyl-4-yl]methyl]-1H-benzimidazole-7-carboxylic acid]
M-value (average glucose infusion rate, index of insulin sensitivity) (0.3 mg/kg/day orally for 2 weeks): 7.8 ± 0.5 mg/kg/min | M-value (average glucose infusion rate, index of insulin sensitivity) (1 mg/kg/day orally for 2 weeks): 8.6 ± 0.6 mg/kg/min | insulin sensitivity enhancing effect (0.3 and 1 mg/kg/day orally for 2 weeks): dose-dependent insulin sensitivity enhancing effect
